≈ marks a conversion by molar mass, not a printed value.
Experiments:
[1] = system: Plasmodium falciparum; test: Resistance index, ratio of IC50 for Plasmodium falciparum 3D7 to IC50 for Plasmodium falciparum RKL9; format: functional
[2] = Cytotoxicity against human HeLa cells after 24 to 48 hrs by MTT assay; format: cell-based; conditions: read-out: TC50 (the source's name)
[3] = system: Plasmodium falciparum; test: Antimalarial activity against chloroquine-resistant Plasmodium falciparum RKL9 infected in human erythrocyte after 48 h by SYBR-Green-1 assay; format: functional, organism-based; conditions: RKL9, 48 h
[4] = Therapeutic index, ratio of TC50 for human HeLa cells to IC50 for Plasmodium falciparum RKL9; format: cell-based; conditions: read-out: TI
[5] = system: Plasmodium falciparum; test: Antimalarial activity against chloroquine-sensitive Plasmodium falciparum 3D7 infected in human erythrocyte after 48 h by SYBR-Green-1 assay; format: functional, organism-based; conditions: 3D7, 48 h

Row | Structure (SMILES) | IC50 [5] [µg/mL] | Ratio IC50 [1] | CC50 [2] [µg/mL] | IC50 [3] [µg/mL] | selectivity ratio [4] | IC80 [5] [µg/mL]
1 | COc1cc(/C=C/C(=O)c2cc3ccccc3oc2=O)cc(OC)c1OC | 3.1 (≈ 8.46 µM) | 1.6 | > 100 | 1.9 (≈ 5.19 µM) | > 50 | 6 (≈ 16.4 µM)
2 | COc1cccc(/C=C/C(=O)c2cc3ccccc3oc2=O)c1 | 11 (≈ 35.9 µM) | 2.2 | > 100 | 4.9 (≈ 16 µM) | > 20 | 24 (≈ 78.4 µM)
3 | COc1ccc(/C=C/C(=O)c2cc3ccccc3oc2=O)c(OC)c1OC | 3.1 (≈ 8.46 µM) | 2.8 | 100 (≈ 273 µM) | 1.1 (≈ 3 µM) | 90.9 | 6.2 (≈ 16.9 µM)
4 | COc1ccccc1/C=C/C(=O)c1cc2ccccc2oc1=O | > 100 | – | – | – | – | –
5 | Cc1cc(=O)oc2ccc(C(=O)/C=C/c3ccccc3Cl)c(O)c12 | 20 (≈ 58.7 µM) | 1.5 | – | 13.5 (≈ 39.6 µM) | – | 25 (≈ 73.4 µM)
6 | COc1ccc(OC)c(/C=C/C(=O)c2ccc3oc(=O)cc(C)c3c2O)c1 | > 100 | – | – | – | – | –
7 | COc1ccc(C2CC(c3cc4ccccc4oc3=O)=NN2C(C)=O)cc1OC (stereo not given) | 10 (≈ 25.5 µM) | 1.1 | > 100 | 9 (≈ 22.9 µM) | > 10 | 14 (≈ 35.7 µM)
8 | COc1ccc(C2CC(c3cc4ccccc4oc3=O)=NN2c2ccccc2)cc1OC (stereo not given) | 10 (≈ 23.4 µM) | 1.3 | > 100 | 7.6 (≈ 17.8 µM) | > 13 | 44 (≈ 103 µM)
9 | CC(=O)N1N=C(c2ccc(O)cc2)CC1c1ccc(F)cc1 (stereo not given) | > 100 | – | – | – | – | –
10 | C[C@@H]1CC[C@H]2[C@@H](C)C(=O)O[C@@H]3O[C@@]4(C)CC[C@@H]1[C@]32OO4 [ARTEMISININ] | – | – | – | 0.00451 (≈ 0.016 µM) | – | 0.00846 (≈ 0.03 µM)

The next lines start with results.

Row | IC50 [5] [µg/mL] | Structure (SMILES) | Ratio IC50 [1] | CC50 [2] [µg/mL] | IC50 [3] [µg/mL] | selectivity ratio [4] | IC80 [5] [µg/mL]
11 | 26.7 (≈ 79.4 µM) | COc1ccc(/C=C/C(=O)c2cc3ccccc3oc2=O)cc1OC | – | – | – | – | 100 (≈ 297 µM)
12 | > 100 | COc1ccc(/C=C/C(=O)c2cc3ccccc3oc2=O)cc1 | – | – | – | – | –
13 | 2.7 (≈ 8.03 µM) | COc1ccc(OC)c(/C=C/C(=O)c2cc3ccccc3oc2=O)c1 | – | – | – | – | 11.3 (≈ 33.6 µM)
14 | > 100 | COc1cc(OC)c(OC)cc1/C=C/C(=O)c1cc2ccccc2oc1=O | – | – | – | – | –

— ChEMBL document CHEMBL1208698, “Synthesis of novel alpha-pyranochalcones and pyrazoline derivatives as Plasmodium falciparum growth inhibitors” (Bioorg Med Chem Lett, 2010)
